Reference: PubChem BioAssay AID1963435 (Molecular Pharmacology Branch, DTP, NCI, 2024)

System: PANC-1 complex spheroid growth, percent test/control
Assay: Anticancer human tumor PANC-1 cell line growth inhibition [Asc];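 note: spheroids exposed to agents for 7 days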;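 for viability, T/C: percent viability relative to DMSO vehicle wells taken as 100%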
Conditions: for viability, T/C: stronger effect = lower value
Outline: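 Complex solid-tumor spheroids incorporating human endothelial and mesenchymal stem cells received single agents or combinations over half-log dilution ranges anchored to clinical Cmax.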

Structure (SMILES): COc1c(OCCCN2CCOCC2)ccc2c3n(c(=NC(=O)c4cnc(N)nc4)nc12)CCN3 + Cc1c(S(C)(=O)=O)c(-c2cc(F)cc(N3CCN(c4ccc(NS(=O)(=O)c5ccc(NC(CCN6CCC(C(=O)OCCCP(=O)(O)O)CC6)CSc6ccccc6)c(S(=O)(=O)C(F)(F)F)c5)cc4)CC3)c2)c(-c2ccc(Cl)cc2)n1C(C)C
- IC50 (curve of first compound, second compound 0.0316 µM): 0.536 µM
- IC50 (curve of first compound, second compound 0.1 µM): 0.42 µM
- IC50 (curve of first compound, second compound 0.316 µM): 0.314 µM
- IC50 (curve of first compound, second compound 1 µM): 0.304 µM
- IC50 (curve of first compound, second compound 3.16 µM): 0.282 µM
- IC50 (curve of first compound, second compound 10 µM): 0.264 µM
- viability, T/C (second compound 0.0316 µM, first compound 0.00316 µM): 103%
- viability, T/C (second compound 0.0316 µM, first compound 0.01 µM): 98.5%
- viability, T/C (second compound 0.0316 µM, first compound 0.0316 µM): 95.7%
- viability, T/C (second compound 0.0316 µM, first compound 0.1 µM): 73.7%
- viability, T/C (second compound 0.0316 µM, first compound 0.316 µM): 69.4%
- viability, T/C (second compound 0.0316 µM, first compound 1 µM): 32.6%
- viability, T/C (second compound 0.1 µM, first compound 0.00316 µM): 98%
- viability, T/C (second compound 0.1 µM, first compound 0.01 µM): 105%
- viability, T/C (second compound 0.1 µM, first compound 0.0316 µM): 94.7%
- viability, T/C (second compound 0.1 µM, first compound 0.1 µM): 72.8%
- viability, T/C (second compound 0.1 µM, first compound 0.316 µM): 60.2%
- viability, T/C (second compound 0.1 µM, first compound 1 µM): 28.5%
- viability, T/C (second compound 0.316 µM, first compound 0.00316 µM): 107%
- viability, T/C (second compound 0.316 µM, first compound 0.01 µM): 106%
- viability, T/C (second compound 0.316 µM, first compound 0.0316 µM): 91.1%
- viability, T/C (second compound 0.316 µM, first compound 0.1 µM): 58.2%
- viability, T/C (second compound 0.316 µM, first compound 0.316 µM): 59%
- viability, T/C (second compound 0.316 µM, first compound 1 µM): 25.7%
- viability, T/C (second compound 1 µM, first compound 0.00316 µM): 104%
- viability, T/C (second compound 1 µM, first compound 0.01 µM): 97.8%
- viability, T/C (second compound 1 µM, first compound 0.0316 µM): 99.8%
- viability, T/C (second compound 1 µM, first compound 0.1 µM): 67.4%
- viability, T/C (second compound 1 µM, first compound 0.316 µM): 52.9%
- viability, T/C (second compound 1 µM, first compound 1 µM): 24.1%
- viability, T/C (second compound 3.16 µM, first compound 0.00316 µM): 122%
- viability, T/C (second compound 3.16 µM, first compound 0.01 µM): 106%
- viability, T/C (second compound 3.16 µM, first compound 0.0316 µM): 86.8%
- viability, T/C (second compound 3.16 µM, first compound 0.1 µM): 65.8%
- viability, T/C (second compound 3.16 µM, first compound 0.316 µM): 53.8%
- viability, T/C (second compound 3.16 µM, first compound 1 µM): 23.9%
- viability, T/C (second compound 10 µM, first compound 0.00316 µM): 171%
- viability, T/C (second compound 10 µM, first compound 0.01 µM): 198%
- viability, T/C (second compound 10 µM, first compound 0.0316 µM): 131%
- viability, T/C (second compound 10 µM, first compound 0.1 µM): 78.1%
- viability, T/C (second compound 10 µM, first compound 0.316 µM): 52.5%
- viability, T/C (second compound 10 µM, first compound 1 µM): 31.7%

Structure (SMILES): CCN1C(C(=O)NC23CCC(C(=O)O)(CC2)CC3)C(c2cccc(Cl)c2F)C2(C(=O)Nc3cc(Cl)ccc32)C12CCCCC2 (stereo not given)
- viability, T/C (compound 0.00949 µM): 103% [middle of 9 runs]
- viability, T/C (compound 0.03 µM): 102% [middle of 9 runs]
- viability, T/C (compound 0.0949 µM): 103% [middle of 9 runs]
- viability, T/C (compound 0.3 µM): 100% [middle of 9 runs]
- viability, T/C (compound 0.949 µM): 103% [middle of 9 runs]
- viability, T/C (compound 3 µM): 112% [middle of 9 runs]
- IC50 (compound alone, run of 11/07/2022): > 3 µM
- IC50 (curve of compound): > 3 µM
